Data set [1] has as its target T1, JAK2 (Homo sapiens, UniProt O60674). The data set is described as follows: Cellular JAK2 activity assay: EPO-stimulated STAT5 phosphorylation in TF-1 cells. The data set is classed as cell-based. On the set-up: endogenous in cells; host or cells: TF-1 cells (ATCC). Particulars: EPO (10 U/mL), pSTAT5, read-out: IC50 Cell JAK2. As for the experimental part:
(§1) In TF-1 cells, IL-6 stimulation leads to phosphorylation of STAT3 through JAK1, while EPO stimulants phosphorylation of STAT5 via JAK2.
(§2) TF-1 cells were obtained from American Type Culture Collection (ATCC). TF-1 cells were starved overnight (cell density was 100,000 cells/well at plating) in OptiMEM medium without phenol red containing 0.5% fetal bovine serum (FBS), 0.1 mM non-essential amino acids (NEAA), 1 mM sodium pyruvate at 37° C. The compound was serially diluted in DMSO, added to TF-1 cells and incubated at 37° C. for 20 minutes. The final concentration of DMSO was 0.2%. Then, human recombinant cytokine IL-6 (30 ng/mL) or EPO (10 U/mL) was added to the wells containing TF-1 cells. After the cell plate was incubated for 30 minutes, cells were lysed, and the phosphorylation of STAT3 (IL-6) or STAT5 (EPO) in the cell lysate (pSTAT3/total STAT3 Elisa Kit: CST #7300C/CST #7305C; pSTAT5 and total STAT5 Elisa Kit: Abcam #ab205715) was measured. The IC50 value was determined as the concentration of the compound required to inhibit STAT phosphorylation by 50% relative to the measured DMSO control.

Another data set deals with T2, JAK3 protein (Homo sapiens, UniProt P52333).
T2 construct: purchased Carna Biosciences
T2 sequence (P52333 1-1124): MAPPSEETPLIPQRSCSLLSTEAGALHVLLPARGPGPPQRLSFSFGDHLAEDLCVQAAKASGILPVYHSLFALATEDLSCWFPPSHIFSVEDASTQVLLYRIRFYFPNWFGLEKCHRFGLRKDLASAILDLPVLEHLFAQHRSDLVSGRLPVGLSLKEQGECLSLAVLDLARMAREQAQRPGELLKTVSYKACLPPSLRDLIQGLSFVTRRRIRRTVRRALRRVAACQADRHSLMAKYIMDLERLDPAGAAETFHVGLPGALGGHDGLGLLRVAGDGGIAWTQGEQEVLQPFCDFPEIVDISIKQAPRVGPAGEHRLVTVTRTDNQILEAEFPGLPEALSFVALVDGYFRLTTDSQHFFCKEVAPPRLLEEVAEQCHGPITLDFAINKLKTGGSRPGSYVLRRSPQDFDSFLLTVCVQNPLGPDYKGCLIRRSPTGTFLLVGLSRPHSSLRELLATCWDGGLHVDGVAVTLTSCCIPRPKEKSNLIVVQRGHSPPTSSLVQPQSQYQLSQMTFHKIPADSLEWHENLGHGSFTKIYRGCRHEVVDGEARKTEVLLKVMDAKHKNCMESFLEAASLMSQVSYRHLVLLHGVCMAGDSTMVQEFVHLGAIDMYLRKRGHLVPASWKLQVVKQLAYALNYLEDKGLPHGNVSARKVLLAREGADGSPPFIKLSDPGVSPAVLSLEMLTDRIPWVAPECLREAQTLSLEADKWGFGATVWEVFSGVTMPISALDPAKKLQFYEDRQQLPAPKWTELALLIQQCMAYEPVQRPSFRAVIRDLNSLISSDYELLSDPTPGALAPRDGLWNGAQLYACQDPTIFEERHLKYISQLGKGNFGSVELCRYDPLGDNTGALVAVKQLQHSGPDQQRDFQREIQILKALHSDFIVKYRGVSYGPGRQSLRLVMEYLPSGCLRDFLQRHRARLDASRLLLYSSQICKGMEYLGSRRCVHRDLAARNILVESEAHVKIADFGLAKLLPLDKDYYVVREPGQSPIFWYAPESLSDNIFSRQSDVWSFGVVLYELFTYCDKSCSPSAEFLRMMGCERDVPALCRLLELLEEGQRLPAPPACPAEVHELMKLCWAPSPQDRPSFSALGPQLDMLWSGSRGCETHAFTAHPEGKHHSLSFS
The data set is described as follows: In vitro JAK3 kinase activity assay (HTRF kinEASE TK). The class given is biochemical. Particulars: 0.75 μM ATP, 25 minutes, room temperature; read-out: IC50 JAK3 (enzyme activity assay). As for the experimental part: (§3) Recombinant human JAK1 protein was purchased from Thermo Fisher. JAK2 and JAK3 proteins were purchased from Carna Biosciences. HTRF kinEASE TK kit was purchased from Cisbio Bioassays. BioTek microplate reader Synergy Neo 2 was used to read the plate.
(§4) The test compounds were of 4-fold serial dilution, and the final concentration ranged from 10 μM to 0.04 nM in duplicates for each concentration. The concentration of DMSO in the reaction system was 1%.
The reaction included […] JAK 3 protein kinase, 1 μM TK Substrate-biotin peptide substrate, 0.75 μM ATP, 1× enzymatic buffer, 5 mM MgCl2, and 1 mM DTT. The detection plate was White Proxiplate 384-Plus plate (PerkinElmer), and the mixture (10 μl) was reacted at room temperature for 25 minutes.
(§5) Reaction detection: 10 μl of detection reagent was added to the reaction plate containing final concentration of 0.125 μM of SA-XL665 and 5 μl 1×TK-Antibody. The mixture was incubated overnight at room temperature. The plate was read using Synergy Neo 2.
(§6) Data analysis: 665/620 Ratio was converted into inhibition rate (%) through the following formula: inhibition rate (%)=(Ratiomax−Ratiotest)/(Ratiomax−Ratiomin)×100%. Ratiomax is a positive control without detection compound, Ratiomin is a negative control without detection compound and kinase, Ratiotest is the detection value of each concentration of different compounds. 4 parameter curve fitting was performed to measure the IC50 (nM) values. The details are shown in, Table 1.

In data set [2] the target is T3, JAK1 (Homo sapiens, UniProt P23458). The data set is described as follows: Cellular JAK1 activity assay: IL-6-stimulated STAT3 phosphorylation in TF-1 cells. The class given is cell-based. Particulars: IL-6 (30 ng/mL), pSTAT3, read-out: IC50 Cell JAK1. On the set-up: endogenous in cells; host or cells: TF-1 cells (ATCC). As to the method:
as §1, §2

The target of data set [3] is T3, JAK1. The data set is described as follows: In vitro JAK1 kinase activity assay (HTRF kinEASE TK). Conditions: 1.1 μM ATP, 60 minutes, room temperature; read-out: IC50 JAK1 (enzyme activity assay). Set-up: purchased Thermo Fisher. The data set is classed as biochemical. As for the experimental part:
as §3, §4
The reaction included 0.5 ng/μl JAK 1 protein kinase, 1 μM TK Substrate-biotin peptide substrate, 1.1 μM ATP, 1× enzymatic buffer, 5 mM MgCl2, 1 mM MnCl2, 1 mM DTT, and 2.5 nM SEB. The detection plate was White Proxiplate 384-Plus plate (PerkinElmer), and the mixture (10 μl) was reacted at room temperature for 60 minutes.
as §5, §6

A short description of another data set: Mouse pharmacokinetics. The data set is classed as in vivo. Conditions: CD-1 mice, 5 mg/kg, P.O.; for Cmax / half-life / AUC(0-t): mouse, po, plasma; for AUC(0-t): read-out: AUC0-24 hr. As for the experimental part: Test compound was intravenously (IV) or orally (PO) administrated to CD-1 mice. Blood samples were collected at different time points as indicated below. The concentration of the compounds in the mouse plasma was determined by LC-MS/MS and related parameters were calculated. The details are as follows: the required amount of the test product was taken to prepare a solution of the required concentration for intravenous injection or oral administration. The age of the animals was about 6-8 weeks at the beginning of the dosing experiment. Blood sampling time points are 0.083 h, 0.25 h, 0.5 h, 1 h, 2 h, 4 h, 8 h and 24 h after compound administration. The Phoenix WinNonlin 7.0 software was used to calculate the pharmacokinetic parameters through the blood drug concentration data at different time points.

Data set [4] addresses T1, JAK2. The data set is described as follows: In vitro JAK2 kinase activity assay (HTRF kinEASE TK). The data set is classed as biochemical. On the set-up: purchased Carna Biosciences. Conditions: 2.7 μM ATP, 25 minutes, room temperature; read-out: IC50 JAK2 (enzyme activity assay). As to the method: as §3, §4
The reaction included 0.001 ng/μl JAK 2 protein kinase, 1 μM TK Substrate-biotin peptide substrate, 2.7 μM ATP, 1× enzymatic buffer, 5 mM MgCl2, and 1 mM DTT. The detection plate was White Proxiplate 384-Plus plate (PerkinElmer), and the mixture (10 μl) was reacted at room temperature for 25 minutes.
as §5, §6

Each structure is given as a SMILES string.

T3 sequence (P23458 whole entry): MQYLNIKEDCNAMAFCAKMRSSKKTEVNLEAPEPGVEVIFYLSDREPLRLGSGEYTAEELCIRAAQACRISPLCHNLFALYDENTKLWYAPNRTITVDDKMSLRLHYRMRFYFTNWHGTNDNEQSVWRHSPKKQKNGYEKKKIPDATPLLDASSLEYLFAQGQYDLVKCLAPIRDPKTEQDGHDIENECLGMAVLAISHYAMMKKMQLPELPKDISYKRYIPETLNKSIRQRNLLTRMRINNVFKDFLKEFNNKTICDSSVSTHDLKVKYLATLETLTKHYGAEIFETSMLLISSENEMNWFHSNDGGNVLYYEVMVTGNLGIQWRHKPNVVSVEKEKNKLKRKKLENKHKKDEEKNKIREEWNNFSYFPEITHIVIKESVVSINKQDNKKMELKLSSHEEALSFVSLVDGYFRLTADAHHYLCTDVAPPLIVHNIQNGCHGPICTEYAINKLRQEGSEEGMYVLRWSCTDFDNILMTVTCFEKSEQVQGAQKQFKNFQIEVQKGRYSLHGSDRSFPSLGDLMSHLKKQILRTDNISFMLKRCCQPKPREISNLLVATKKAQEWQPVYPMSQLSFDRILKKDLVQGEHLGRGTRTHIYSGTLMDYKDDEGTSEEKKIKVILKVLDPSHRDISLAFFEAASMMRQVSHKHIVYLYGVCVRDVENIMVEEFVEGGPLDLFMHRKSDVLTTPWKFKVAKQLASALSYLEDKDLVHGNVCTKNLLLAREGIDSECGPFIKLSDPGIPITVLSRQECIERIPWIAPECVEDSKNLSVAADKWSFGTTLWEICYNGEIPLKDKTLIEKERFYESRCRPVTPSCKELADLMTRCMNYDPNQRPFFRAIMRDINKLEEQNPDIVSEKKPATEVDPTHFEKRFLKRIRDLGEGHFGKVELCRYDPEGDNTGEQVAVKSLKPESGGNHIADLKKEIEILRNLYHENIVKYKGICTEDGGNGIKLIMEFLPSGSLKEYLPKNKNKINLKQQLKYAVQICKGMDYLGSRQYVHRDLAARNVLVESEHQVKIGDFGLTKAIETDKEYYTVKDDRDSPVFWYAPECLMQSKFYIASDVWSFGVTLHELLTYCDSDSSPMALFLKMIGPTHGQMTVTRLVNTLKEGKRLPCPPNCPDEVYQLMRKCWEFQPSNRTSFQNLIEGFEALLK
T1 sequence (O60674 whole entry): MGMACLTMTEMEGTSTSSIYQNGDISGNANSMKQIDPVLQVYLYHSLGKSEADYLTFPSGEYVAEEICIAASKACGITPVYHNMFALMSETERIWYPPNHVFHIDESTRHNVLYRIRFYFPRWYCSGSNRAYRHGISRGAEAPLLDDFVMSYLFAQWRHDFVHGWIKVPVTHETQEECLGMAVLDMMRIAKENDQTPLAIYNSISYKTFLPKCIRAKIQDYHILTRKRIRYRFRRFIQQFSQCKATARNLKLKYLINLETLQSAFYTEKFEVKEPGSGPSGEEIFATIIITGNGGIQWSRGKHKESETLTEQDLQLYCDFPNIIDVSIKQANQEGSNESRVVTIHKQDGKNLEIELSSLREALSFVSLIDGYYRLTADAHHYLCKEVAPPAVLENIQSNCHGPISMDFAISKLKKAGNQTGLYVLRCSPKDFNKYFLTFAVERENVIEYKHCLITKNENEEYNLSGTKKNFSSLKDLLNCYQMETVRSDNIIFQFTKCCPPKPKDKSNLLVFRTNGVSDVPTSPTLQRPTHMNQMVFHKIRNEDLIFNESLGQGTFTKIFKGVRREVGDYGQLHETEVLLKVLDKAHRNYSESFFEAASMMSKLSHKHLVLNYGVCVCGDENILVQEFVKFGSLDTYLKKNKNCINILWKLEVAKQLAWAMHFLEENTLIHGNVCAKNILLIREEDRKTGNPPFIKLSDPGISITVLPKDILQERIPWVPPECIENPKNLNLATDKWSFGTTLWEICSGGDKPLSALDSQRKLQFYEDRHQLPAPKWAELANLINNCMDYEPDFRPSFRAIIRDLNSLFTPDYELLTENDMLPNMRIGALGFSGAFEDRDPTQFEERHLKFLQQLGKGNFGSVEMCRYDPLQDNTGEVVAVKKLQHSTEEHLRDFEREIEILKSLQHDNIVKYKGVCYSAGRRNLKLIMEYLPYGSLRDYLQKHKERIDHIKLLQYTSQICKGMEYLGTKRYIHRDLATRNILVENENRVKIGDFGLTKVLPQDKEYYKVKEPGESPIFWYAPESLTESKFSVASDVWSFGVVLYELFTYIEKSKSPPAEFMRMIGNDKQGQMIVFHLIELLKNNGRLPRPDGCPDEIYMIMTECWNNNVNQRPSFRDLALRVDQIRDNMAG

With `CC[C@H](C(=O)Nc1nccc2c(-c3nc(Nc4cccc(S(C)(=O)=O)c4F)ncc3C)c[nH]c12)N1CC2CCC(C1)N2C` [Example 25, (R)—N-(3-(2-((2-Fluoro-3-(methylsulfonyl)phenyl)amino)-5-methylpyrimidin-4-yl)-1H-pyrrolo[2,3-c]pyridin-7-yl)-2-(8-methyl-3,8-diazabicyclo[3.2.1]octane-3-yl)butanamide], the IC50 on JAK2 [1] was over 20 µM; at JAK3 protein, 0.5 to 10 µM; at JAK1 [2] it was 100 to 1000 nM; on JAK1 [3], under 5 nM; at JAK2 [4] it was under 100 nM. The F in the data set “Mouse pharmacokinetics” is given as 66.1%. The Cmax in the data set “Mouse pharmacokinetics” was determined as 155 ng/mL. This compound also gave a half-life in the data set “Mouse pharmacokinetics” of 214 min. The AUC(0-t) in the data set “Mouse pharmacokinetics” amounted to 946 ng·h/mL.

Turning to `CCC(C(=O)Nc1nccc2c(-c3nc(Nc4cccc(S(C)(=O)=O)c4F)ncc3C)c[nH]c12)N1CCN(C)CC1` (stereo in doubt) [Example 21, (R)—N-(3-(2-((2-Fluoro-3-(methylsulfonyl)phenyl)amino)-5-methylpyrimidin-4-yl)-1H-pyrrolo[2,3-c]pyridin-7-yl)-2-(4-methylpiperazin-1-yl)butanamide], the IC50 was over 20 µM on JAK2 [1]; 0.5 to 10 µM on JAK3 protein; under 100 nM at JAK1 [2]; under 5 nM on JAK1 [3]; 100 to 10000 nM at JAK2 [4]. Further, the F in the data set “Mouse pharmacokinetics” stood at 97.1%. This compound yielded a Cmax in the data set “Mouse pharmacokinetics” of 264 ng/mL. This compound also had a half-life in the data set “Mouse pharmacokinetics” of 157 min. Further, in the data set “Mouse pharmacokinetics”, the AUC(0-t) is 1680 ng·h/mL.
